{"source": "patent US20240166652A1", "about": "“MODULATORS OF THE INTEGRATED STRESS PATHWAY” (Calico Life Sciences LLC, priority 2017, published 2024)", "data": [{"tested_on": "ATF4 luciferase reporter in HEK293T cells", "assay": "ATF4-Luc assay (ATF4 luciferase reporter, tunicamycin-treated HEK293T cells)", "format": "cell-based, human", "details": "HEK293T cells carrying the ATF4 luciferase reporter, 1 μg/mL tunicamycin, 7 hours", "units": {"EC50": "nM"}, "values": [{"smiles": "O=C(COc1ccc(Cl)cc1)NC12CCC(NC(=O)COc3ccc(F)cc3)(CC1)[C@@H](O)C2", "note": "[Compound 708, 2-(4-chlorophenoxy)-N-{(3S)-4-[2-(4-fluorophenoxy)acetamido]-3-hydroxybicyclo[2.2.2]octan-1-yl}acetamide]", "EC50": "< 10"}]}, {"tested_on": "ATF4 luciferase reporter in HEK293T cells", "assay": "ATF4-Luc assay (ATF4 luciferase reporter, tunicamycin-treated HEK293T cells)", "format": "cell-based, human", "details": "Homo sapiens, HEK-293T; HEK293T cells carrying the ATF4 luciferase reporter, 1 μg/mL tunicamycin, 7 hours", "units": {"EC50": "nM"}, "values": [{"smiles": "O=C(COc1ccc(Cl)c(F)c1)NC12CC(NC(=O)Nc3ccc(Cl)cc3O)(C1)C2", "note": "[Compound 432, 2-(4-chloro-3-fluorophenoxy)-N-(3-{[(4-chloro-2-hydroxyphenyl)carbamoyl]amino}bicyclo[1.1.1]pentan-1-yl)acetamide]", "EC50": "50 to 250"}, {"smiles": "O=C(COc1cccnc1)NC12CCC(NC(=O)COc3ccc(Cl)c(F)c3)(CC1)[C@@H](O)C2", "note": "[Compound 607, 2-(4-chloro-3-fluorophenoxy)-N-[(2S)-2-hydroxy-4-{2-[(pyridin-3-yl)oxy]acetamido}bicyclo[2.2.2]octan-1-yl]acetamide]", "EC50": "50 to 250"}, {"smiles": "O=C(COc1ccc(Cl)cc1)NC12CC(NC(=O)COc3ccc(F)c(F)c3)(C1)C2", "note": "[Compound 837, 2-(4-chlorophenoxy)-N-{3-[2-(3,4-difluorophenoxy)acetamido]bicyclo[1.1.1]pentan-1-yl}acetamide]", "EC50": "< 10"}, {"smiles": "O=C(COc1ccc(Cl)c(F)c1)NC12CC(NCc3ccccc3)(C1)C2", "note": "[Compound 551, N-[3-(benzylamino)bicyclo[1.1.1]pentan-1-yl]-2-(4-chloro-3-fluorophenoxy)acetamide]", "EC50": "500 to 2000"}, {"smiles": "CN(CC(=O)NC12CCC(NC(=O)COc3ccc(Cl)c(Cl)c3)(C1)C2)c1ccc(Cl)cc1", "note": "[Compound 202, N^2-(4-chlorophenyl)-N-{4-[2-(3,4-dichlorophenoxy)acetamido]-bicyclo[2.1.1]hexan-1-yl}-N^2-methylglycinamide]", "EC50": "> 2000"}, {"smiles": "COc1cccc(CCC(=O)NC23CC(NC(=O)COc4ccc(Cl)c(F)c4)(C2)C3)c1", "note": "[Compound 461, N-{3-[2-(4-chloro-3-fluorophenoxy)acetamido]bicyclo[1.1.1]pentan-1-yl}-3-(3-methoxyphenyl)propanamide]", "EC50": "> 2000"}, {"smiles": "COc1cc(OCC(=O)NC23CCC(NC(=O)COc4ccc(F)c(F)c4)(CC2)[C@@H](O)C3)ccc1F", "note": "[Compound 756, 2-(3,4-difluorophenoxy)-N-{(2S)-4-[2-(4-fluoro-3-methoxyphenoxy)acetamido]-2-hydroxybicyclo[2.2.2]octan-1-yl}acetamide]", "EC50": "< 10"}, {"smiles": "O=C(/C=C/c1cccc(Cl)c1)NC12CC(NC(=O)COc3ccc(Cl)c(F)c3)(C1)C2", "note": "[Compound 350, (2E)-N-{3-[2-(4-chloro-3-fluorophenoxy)acetamido]bicyclo[1.1.1]pentan-1-yl}-3-(3-chlorophenyl)prop-2-enamide]", "EC50": "50 to 250"}, {"smiles": "O=C(COc1ccc(Cl)c(F)c1)NC12CCC(NC(=O)COc3ccc(Cl)c(F)c3)(CC1)C2", "note": "[Compound 440, N,N′-(bicyclo[2.2.1]heptane-1,4-diyl)bis[2-(4-chloro-3-fluorophenoxy)acetamide]]", "EC50": "< 10"}, {"smiles": "O=C(COc1ccc(Cl)c(F)c1)NC12CCC(NC(=O)COc3cnn(CC(F)(F)F)c(=O)c3)(CC1)C(O)C2", "note": "(stereo not shown) [Compound 334, 2-(4-chloro-3-fluorophenoxy)-N-[3-hydroxy-4-(2-{[6-oxo-1-(2,2,2-trifluoroethyl)-1,6-dihydropyridazin-4-yl]oxy}acetamido)bicyclo[2.2.2]octan-1-yl]acetamide]", "EC50": "500 to 2000"}, {"smiles": "O=C(COn1nnc2cccnc21)NC12CCC(NC(=O)COc3ccc(Cl)c(F)c3)(CC1)C(=O)N2", "note": "[Compound 691, 2-(4-chloro-3-fluorophenoxy)-N-(3-oxo-1-{2-[(3H-[1,2,3]-triazolo[4,5-b]pyridin-3-yl)oxy]acetamido}-2-azabicyclo[2.2.2]octan-4-yl)acetamide]", "EC50": "> 2000"}, {"smiles": "O=C(COc1ccc(Cl)c(F)c1)NC12CC(NC(=O)COc3ccc4cn[nH]c4c3)(C1)C2", "note": "[Compound 108, 2-(4-chloro-3-fluorophenoxy)-N-(3-{2-[(1H-indazol-6-yl)oxy]acetamido}-bicyclo[1.1.1]pentan-1-yl)acetamide]", "EC50": "10 to 50"}, {"smiles": "O=C(COc1ccc(Cl)c(F)c1)NC12CC(NC(=O)COc3ccc(F)cc3F)(C1)C2", "note": "[Compound 409, 2-(4-chloro-3-fluorophenoxy)-N-{3-[2-(2,4-difluorophenoxy)acetamido]bicyclo[1.1.1]pentan-1-yl}acetamide]", "EC50": "< 10"}, {"smiles": "O=C(COc1cccc(F)c1)NC12CCC(NC(=O)COc3cccc(F)c3)(CC1)[C@@H](O)C2", "note": "[Compound 549, N,N′-[(2S)-2-hydroxybicyclo[2.2.2]octane-1,4-diyl]bis[2-(3-fluorophenoxy)acetamide]]", "EC50": "50 to 250"}, {"smiles": "O=C(COc1ccc(Cl)c(F)c1)NC12CCC(NC(=O)COc3ccc(Cl)c(F)c3)(CC1)C(=O)N2", "note": "[Compound 603, N,N′-(3-oxo-2-azabicyclo[2.2.2]octane-1,4-diyl)bis[2-(4-chloro-3-fluorophenoxy)acetamide]]", "EC50": "< 10"}, {"smiles": "O=C(COc1ccc(Cl)c(Cl)c1)NC12CC(NC(=O)NCc3cccc(F)c3)(C1)C2", "note": "[Compound 451, 2-(3,4-dichlorophenoxy)-N-[3-({[(3-fluorophenyl)methyl]carbamoyl}amino)bicyclo[1.1.1]pentan-1-yl]acetamide]", "EC50": "> 2000"}, {"smiles": "Cc1ccc(OCC(=O)NC23CCC(NC(=O)COc4ccc(Cl)c(F)c4)(CC2)[C@@H](O)C3)cc1C", "note": "[Compound 471, 2-(4-chloro-3-fluorophenoxy)-N-{(2S)-4-[2-(3,4-dimethylphenoxy)acetamido]-2-hydroxybicyclo[2.2.2]octan-1-yl}acetamide]", "EC50": "< 10"}, {"smiles": "O=C(COc1ccc(Cl)cc1)NC12CCC(NC(=O)COc3ccc(Cl)cc3)(CC1)[C@@H](O)C2", "note": "[Compound 540, N,N′-[(2S)-2-hydroxybicyclo[2.2.2]octane-1,4-diyl]bis[2-(4-chlorophenoxy)acetamide]]", "EC50": "< 10"}, {"smiles": "O=C(COc1ccc(Cl)c(F)c1)NC12CC(NC(=O)COc3ccc(Cl)c(CO)c3)(C1)C2", "note": "[Compound 224, 2-(4-chloro-3-fluorophenoxy)-N-(3-{2-[4-chloro-3-(hydroxymethyl)phenoxy]-acetamido}bicyclo[1.1.1]pentan-1-yl)acetamide]", "EC50": "50 to 250"}, {"smiles": "CN(CC(=O)O)C1CC2(NC(=O)COc3ccc(Cl)c(F)c3)CCC1(NC(=O)COc1ccc(Cl)c(F)c1)CC2", "note": "(stereo not shown) [Compound 700, [{1,4-bis[2-(4-chloro-3-fluorophenoxy)acetamido]bicyclo[2.2.2]octan-2-yl}(methyl)amino]acetic Acid]", "EC50": "250 to 500"}, {"smiles": "Cc1ccc(CCOCC(=O)NC23CC(NC(=O)COc4ccc(Cl)c(Cl)c4)(C2)C3)cc1", "note": "[Compound 154, 2-(3,4-dichlorophenoxy)-N-(3-{2-[2-(4-methylphenyl)ethoxy]acetamido}-bicyclo[1.1.1]pentan-1-yl)acetamide]", "EC50": "250 to 500"}, {"smiles": "Cc1ccc(OCC(=O)NC23CCC(NC(=O)COc4cc(F)c5cn[nH]c5c4)(CC2)[C@@H](O)C3)cc1F", "note": "[Compound 735]", "EC50": "< 10"}, {"smiles": "O=C(COc1ccc(Cl)c(F)c1)NC12CC(NC(=O)COc3cnc(Cl)c(C(=O)O)c3)(C1)C2", "note": "[Compound 231, 2-chloro-5-[2-({3-[2-(4-chloro-3-fluorophenoxy)acetamido]-bicyclo[1.1.1]pentan-1-yl}amino)-2-oxoethoxy]pyridine-3-carboxylic Acid]", "EC50": "> 2000"}, {"smiles": "COc1cc(OCC(=O)NC23CCC(NC(=O)COc4ccc(Cl)c(F)c4)(CC2)[C@@H](O)C3)ncn1", "note": "[Compound 666, 2-(4-chloro-3-fluorophenoxy)-N-[(2S)-2-hydroxy-4-{2-[(6-methoxypyrimidin-4-yl)oxy]acetamido}bicyclo[2.2.2]octan-1-yl]acetamide]", "EC50": "50 to 250"}, {"smiles": "O=C(COc1ccc(F)c(F)c1)NC12CCC(NC(=O)COc3cccc(C(F)(F)F)c3)(CC1)[C@@H](O)C2", "note": "[Compound 809, 2-(3,4-difluorophenoxy)-N-[(3S)-3-hydroxy-4-{2-[3-(trifluoromethyl)phenoxy]acetamido}bicyclo[2.2.2]octan-1-yl]acetamide]", "EC50": "< 10"}, {"smiles": "O=C(COc1ccc(Cl)c(Cl)c1)NC12CCC(NC(=O)COc3ccc(Cl)c(Cl)c3)(CC1)C2", "note": "[Compound 526, N,N′-(bicyclo[2.2.1]heptane-1,4-diyl)bis[2-(3,4-dichlorophenoxy)acetamide]]", "EC50": "10 to 50"}, {"smiles": "Cc1nn(C)c(C)c1OCC(=O)NC12CC(NC(=O)COc3ccc(Cl)c(F)c3)(C1)C2", "note": "[Compound 374, 2-(4-chloro-3-fluorophenoxy)-N-(3-{2-[(1,3,5-trimethyl-1H-pyrazol-4-yl)oxy]acetamido}bicyclo[1.1.1]pentan-1-yl)acetamide]", "EC50": "> 2000"}, {"smiles": "O=C(COc1ccc(Cl)c(Cl)c1)NC12CCCC(NC(=O)OCc3ccccc3)(C1)C2", "note": "[Compound 194, benzyl {5-[2-(3,4-dichlorophenoxy)acetamido]bicyclo[3.1.1]heptan-1-yl}carbamate]", "EC50": "> 2000"}, {"smiles": "CC(C)(CNC12CC(NC(=O)COc3ccc(Cl)c(F)c3)(C1)C2)Oc1ccc(Cl)cc1", "note": "[Compound 641, 2-(4-chloro-3-fluorophenoxy)-N-(3-{[2-(4-chlorophenoxy)-2-methylpropyl]amino}bicyclo[1.1.1]pentan-1-yl)acetamide]", "EC50": "> 2000"}, {"smiles": "O=C(COc1ccc(Cl)c(F)c1)N[C@@H]1C[C@@H]2C[C@H]1C[C@H]2NC(=O)COc1ccc(Cl)c(F)c1", "note": "(single isomer, unassigned) [Compound 621]", "EC50": "< 10"}, {"smiles": "O=C(COc1ccc(Cl)c(F)c1)NC12CCC(NCCOc3ccc(Cl)c(Cl)c3)(CC1)C(O)C2", "note": "(stereo not shown) [Compound 335, 2-(4-chloro-3-fluorophenoxy)-N-(4-{[2-(3,4-dichlorophenoxy)ethyl]amino}-3-hydroxybicyclo[2.2.2]octan-1-yl)acetamide]", "EC50": "< 10"}, {"smiles": "O=C(COc1ccc(Cl)c(F)c1)NC12CC(NC(=O)OCCCc3cccc(Cl)c3)(C1)C2", "note": "[Compound 166, 3-(3-chlorophenyl)propyl {3-[2-(4-chloro-3-fluorophenoxy)acetamido]-bicyclo[1.1.1]pentan-1-yl}carbamate]", "EC50": "250 to 500"}, {"smiles": "O=C(COc1ccc(Cl)c(F)c1)NC12CCC(NC(=O)COc3ccc(Cl)c(F)c3)(CC1)C(N1CC(F)(F)C1)C2", "note": "(stereo not shown) [Compound 715, N,N′-[2-(3,3-difluoroazetidin-1-yl)bicyclo[2.2.2]octane-1,4-diyl]bis[2-(4-chloro-3-fluorophenoxy)acetamide]]", "EC50": "10 to 50"}]}]}
